Our source for the CC50 values is ChEMBL document CHEMBL1157132, “Hydrolyzable tannins of tamaricaceous plants. III. Hellinoyl- and macrocyclic-type ellagitannins from Tamarix nilotica” (J Nat Prod, 2010).

As a reminder, the CC50 is the concentration that lowers cell viability or growth by half. A high value points to lower toxicity to the cells.

For data set [1], the system named is HL-60. In words: Cytotoxicity against human HL60 cells after 48 hrs by MTT assay. The following applies: HL-60, 48 h. In kind it is functional.
The nature of data set [2]: Cytotoxicity against human HGF cells after 48 hrs by MTT assay. Format: cell-based. In general terms: Tetrazolium assays rely on reduction of a dye to a coloured formazan, in cell work by metabolically active cells.
Data set [3] can be described thus: Cytotoxicity against human HPLF cells after 48 hrs by MTT assay. In kind it is cell-based.
Data set [4] relates to HSC-2. In words: Cytotoxicity against human HSC2 cells after 48 hrs by MTT assay. The settings on record: HSC-2, 48 h. In kind it is functional.
Data set [5] has as its system HSC-3. The experiment in a line: Cytotoxicity against human HSC3 cells after 48 hrs by MTT assay. In kind it is functional. The settings on record: HSC-3, 48 h.
Data set [6] in a line: Cytotoxicity against human HPC cells after 48 hrs by MTT assay. Format: cell-based.
In data set [7] the test system is HSC-4. The experiment in a line: Cytotoxicity against human HSC4 cells after 48 hrs by MTT assay. In kind it is functional. The following applies: HSC-4, 48 h.

Consider `O=C(O[C@@H]1O[C@@H]2COC(=O)c3cc(O)c(O)c(O)c3-c3c(cc(O)c(O)c3O)C(=O)O[C@H]2[C@H](OC(=O)c2cc(O)c(O)c(O)c2)[C@H]1OC(=O)c1cc(O)c(O)c(O)c1Oc1cc2c(c(O)c1O)Oc1cc(cc(O)c1O)C(=O)O[C@@H]1O[C@@H]3COC(=O)c4cc(O)c(O)c(O)c4-c4c(cc(O)c(O)c4O)C(=O)O[C@H]3[C@H](OC(=O)c3cc(O)c(O)c(O)c3)[C@H]1OC2=O)c1cc(O)c(O)c(O)c1` [HIRTELLIN B], for which the CC50 in data set [1] turned out to be 8.71 µM; in data set [4] it was 91.7 µM; in data set [5] it was 99.3 µM; in data set [7], 74 µM. Moreover, the 50% cytotoxic concentration (CC50) at 48 h in data set [2] turned out to be 177 µM; in data set [3], 293 µM; in data set [6], 78.5 µM.
As for `O=C(O[C@@H]1O[C@@H]2COC(=O)c3cc(O)c(O)c(O)c3-c3c(cc(O)c(O)c3O)C(=O)O[C@H]2[C@H](OC(=O)c2cc(O)c(O)c(O)c2)[C@H]1OC(=O)c1cc(O)c(O)c(O)c1Oc1cc2c(c(O)c1O)Oc1cc(cc(O)c1O)C(=O)O[C@@H]1O[C@H](CO)[C@@H](O)[C@H](OC(=O)c3cc(O)c(O)c(O)c3)[C@H]1OC2=O)c1cc(O)c(O)c(O)c1` [NILOTININ D8], the CC50 was 22.9 µM in data set [1], 32.3 µM in data set [4], 48.3 µM in data set [5] and 54.3 µM in data set [7]. The CC50 at 48 h was 318 µM in data set [2], 358 µM in data set [3] and 278 µM in data set [6].
Take `O=C1O[C@@H]2O[C@@H]3COC(=O)c4cc(O)c(O)c(O)c4-c4c(cc(O)c(O)c4O)C(=O)O[C@H]3[C@H](OC(=O)c3cc(O)c(O)c(O)c3)[C@H]2OC(=O)c2cc(Oc3c(C(=O)O)cc(O)c(O)c3O)c(O)c(O)c2Oc2cc1cc(O)c2O` [NILOTININ M4]: the CC50 turned out to be 30.6 µM in data set [1], 35 µM in data set [4], 57 µM in data set [5] and 62 µM in data set [7]. In addition, the CC50 at 48 h in data set [2] amounted to 325 µM; in data set [3] it was 361 µM; in data set [6], 263 µM.
With `O=C(O)c1cc(O)c(O)c(Oc2c(C(=O)O[C@H]3[C@H](OC(=O)c4cc(O)c(O)c(O)c4)O[C@@H]4COC(=O)c5cc(O)c(O)c(O)c5-c5c(cc(O)c(O)c5O)C(=O)O[C@H]4[C@@H]3OC(=O)c3cc(O)c(O)c(O)c3O)cc(O)c(O)c2O)c1` [REMURIN A], the CC50 in data set [1] was 18.4 µM; in data set [4], 31.3 µM; in data set [5], 51 µM; in data set [7] it was 48 µM. Besides, the CC50 at 48 h stood at 218 µM in data set [2], 373 µM in data set [3] and 170 µM in data set [6].
For the compound `O=C(O)c1cc(O)c(O)c(Oc2c(C(=O)O[C@@H]3[C@@H](OC(=O)c4cc(O)c(O)c(O)c4O)[C@@H]4OC(=O)c5cc(O)c(O)c(O)c5-c5c(cc(O)c(O)c5O)C(=O)OC[C@H]4O[C@H]3O)cc(O)c(O)c2O)c1` [REMURIN B], the CC50 in data set [1] came to 41.7 µM; in data set [4] it was 32.3 µM; in data set [5] it was 63.3 µM; in data set [7] it was 60 µM. The CC50 at 48 h in data set [2] worked out at 337 µM; in data set [3] it was 375 µM; in data set [6], 255 µM.
For `O=C1O[C@@H]2O[C@@H]3COC(=O)c4cc(O)c(O)c(O)c4-c4c(cc(O)c(O)c4O)C(=O)O[C@H]3[C@H](OC(=O)c3cc(O)c(O)c(O)c3)[C@H]2OC(=O)c2cc(Oc3c(C(=O)O[C@@H]4[C@@H](OC(=O)c5cc(O)c(O)c(O)c5)[C@@H]5OC(=O)c6cc(O)c(O)c(O)c6-c6c(cc(O)c(O)c6O)C(=O)OC[C@H]5O[C@H]4O)cc(O)c(O)c3O)c(O)c(O)c2Oc2cc1cc(O)c2O` [TAMARIXININ A], the CC50 in data set [1] is 30.8 µM; in data set [4], 29.3 µM; in data set [5], 54.3 µM; in data set [7], 59.3 µM. Moreover, the cytotoxic concentration (CC50) at 48 h in data set [2] came to 274 µM; in data set [3] it was 353 µM; in data set [6], 199 µM.
